Data: patent US8673913B2, “SHP-2 phosphatase inhibitor” (Case Western Reserve University, priority 2009, dated 2014)

Key:
[1] = system: SHP-2 (WT and D61G) in mouse embryonic fibroblasts; assay: in vivo (immunocomplex) phosphatase assay: EGF-induced activation of SHP-2 in embryonic fibroblasts; type: cell-based; conditions: 100 μM, last 1 hour; WT and SHP-2D61G/D61G cells
Protocol: (§1) FIG. 5 illustrates in vivo effects of active compounds on SHP-2 activity and SHP-2-mediated signaling. (A) WT and mutant embryonic fibroblasts derived from activating mutation SHP-2 D61G knock-in mice were starved in serum-free medium overnight and were treated with the indicated compounds in the last 1 hour. Cells were then stimulated with EGF (20 ng/mL) for 10 min. Whole cell lysates were prepared and immunoprecipitated with anti-SHP-2 antibody. Immunoprecipitates were washed and then subjected to the in vitro phosphatase assay as described in the text. (B) Ba/F3 cells were deprived of IL-3 for 8 hours. The cells were treated with the indicated compounds 1 hour prior to the stimulation with IL-3 (2 ng/mL). Cells were harvested after the indicated periods of time. Whole cell lysates were prepared and examined for Erk activation with anti-phospho-Erk immunoblotting. The blot was striped and reprobed with anti-pan Erk antibody to examine protein loading.
For the in vivo phosphatase assay, mouse embryonic fibroblasts were used to assess the activities of the test compounds in inhibiting epidermal growth factor (EGF)-induced activation of SHP-2 catalytic activity. WT and mutant fibroblasts derived from activating mutation of SHP-2 D61G knock-in mice (SHP-2D61G/D61G)10 were starved in serum-free medium overnight and the tested compounds (100 μM) were added in the last 1 hour. […]

[2] = system: Erk activation in Ba/F3 cells; assay: IL-3-induced Erk activation, anti-phospho-Erk immunoblotting; type: cell-based, murine; conditions: Ba/F3 cells preincubated 1 hour
Protocol: as §1
We next tested whether the active compounds are effective in cells. […] Activation of SHP-2 in response to EGF stimulation was determined using the immunocomplex phosphatase assay. Compared to WT SHP-2, catalytic activity of SHP-2 D61G mutant in the mutant cells was increased both at the basal level and following EGF stimulation (FIG. 5A), consistent with previous studies. […]

[3] = biological target: T1, SHP-2 PTP domain GST fusion protein (Homo sapiens, UniProt Q06124); assay: fluorescence titration (quenching of SHP-2 fluorescence); type: binding; design: Purified SHP-2 PTP domain GST-fusion protein was diluted into 20 mM Tris-HCl; made in house; conditions: SHP-2 protein 3 μM, excitation 295 nm
T1 sequence (Q06124 247-517 limits assumed): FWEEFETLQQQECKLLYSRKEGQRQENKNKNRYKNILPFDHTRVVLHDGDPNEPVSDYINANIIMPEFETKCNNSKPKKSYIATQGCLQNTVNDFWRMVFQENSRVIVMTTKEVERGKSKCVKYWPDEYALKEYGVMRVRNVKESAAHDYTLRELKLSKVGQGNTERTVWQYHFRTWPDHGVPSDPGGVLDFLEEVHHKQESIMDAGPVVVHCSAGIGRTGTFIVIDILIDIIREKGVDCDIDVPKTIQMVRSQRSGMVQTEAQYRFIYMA
Protocol: For all experiments, Purified SHP-2 PTP domain GST-fusion protein was diluted into 20 mM Tris-HCl, pH 7.5. Fluorescence spectra were recorded with a Luminescence Spectrometer LS50 (Perkin-Elmer, Boston, Mass.). Titrations were performed by increasing the test compound concentration while maintaining the SHP-2 protein concentration at 3 μM. Contributions from background fluorescence of the inhibitors were accounted for by subtracting the fluorescence of the inhibitors alone from the of the protein-inhibitor solution. The excitation wavelength was 295 nm and fluorescence was monitored from 360 to 500 nm. All reported fluorescence intensities are relative values and are not corrected for wavelength variations in detector response.
To validate that the active compounds identified were binding directly to the SHP-2 protein, we determined whether the active compounds directly interacted with the SHP-2 PTP domain using fluorescence quenching and taking advantage of the four tryptophans in the PTP domain, with Trp248 located 15 Å from the putative pY+5 pocket and Trp423 located 8 Å from the phosphatase active site. […] Therefore, their binding to SHP-2 protein could not be determined using this measurement. Thus, the fluorescence quenching experiments indicate that at least four active compounds identified do directly bind to SHP-2, thereby leading to their biological activities.

[4] = system: JMML patient bone marrow cells; assay: JMML bone marrow cells cultured with GM-CSF (MTS), FIG. 15; type: cell-based; conditions: DMEM with GM-CSF
Protocol: FIG. 15 illustrates inhibition of growth factor-independent colony formation of myeloid progenitors with SHP-2 activating mutation E76K by active compounds. JMML patient bone marrow cells were harvested from mutant mice with SHP-2 E76K mutation and were cultured in DMEM medium supplemented GM-CSF. DMSO was included at negative controls. Cell numbers were determined using the MTS assay. Shown are the results of a representative compound #324.

quenching of SHP-2 fluorescence [3] | SMILES | EGF-induced activation of SHP-2 [1] | Erk activation by IL-3 [2] | growth of JMML bone marrow cells with GM-CSF (FIG. 15) [4]
strong quenching | Cc1cc(C)c2c(c1)[nH]c1nnc(SCC(=O)NCc3cccs3)nc12 [#220] | blocked | suppressed | 
strong quenching | NS(=O)(=O)c1ccc(CCNC(=O)c2ccc(Cn3c(=S)[nH]c4ccc(Br)cc4c3=O)cc2)cc1 [#216] | blocked | suppressed | 
 | Cc1cc(C)c2[nH]c3nc(SCC(=O)Nc4cccc5ccccc45)nnc3c2c1 [#324] |  |  | inhibition
